Test: xn = mol fraction of the nth substance listed

CCCCOC(C)=O + C1CCCCC1
viscosity [mPa·s], 101 kPa
Conditions	298.15 K	308.15 K
x1 = 0.0561	0.854	0.723
x1 = 0.156	0.801	0.676
x1 = 0.2818	0.749	0.631
x1 = 0.4867	0.693	0.585
x1 = 0.4963	0.691	0.584
x1 = 0.5327	0.685	0.579
x1 = 0.5738	0.678	0.575
x1 = 0.6816	0.667	0.568
x1 = 0.7552	0.663	0.568
x1 = 0.8686	0.663	0.575
x1 = 0.9568	0.669	0.586

CCCCCCCCCCCCCCCCCCCC + CCCCCCC
viscosity [mPa·s], 101.3 kPa
Conditions	x1 = 0.2	x1 = 0.4	x1 = 0.499	x1 = 0.597	x1 = 0.796
293.2 K	0.9382	–	–	–	–
303.2 K	0.8194	1.567	2.02	–	–
313.2 K	0.7187	1.327	1.705	2.145	2.989

C=COC(C)=O + Cc1ccc(C)cc1
viscosity [mPa·s], 101 kPa
Conditions	x1 = 0.1501	x1 = 0.2469	x1 = 0.3618	x1 = 0.4592	x1 = 0.5631	x1 = 0.67	x1 = 0.7587	x1 = 0.8601	x1 = 0.9478
303.15 K	0.537	0.518	0.497	0.48	0.462	0.445	0.435	0.42	0.403
313.15 K	0.486	0.467	0.445	0.428	0.41	0.393	–	–	0.353

CCCCOC(C)=O + CCCCCCCC
298.15 K, 101.3 kPa
Conditions	viscosity [mPa·s]
x1 = 0.0442	0.5144
x1 = 0.1275	0.5154
x1 = 0.2822	0.5241
x1 = 0.3556	0.5333
x1 = 0.4596	0.5465
x1 = 0.5629	0.5633
x1 = 0.6356	0.5776
x1 = 0.7305	0.5991
x1 = 0.8441	0.6298
x1 = 0.9724	0.6725

CCCCOC(C)=O + CCC(C)=O
308 K, 101 kPa
Conditions	viscosity [mPa·s]
x1 = 0.0999	0.468
x1 = 0.2002	0.484
x1 = 0.3	0.52
x1 = 0.4	0.533
x1 = 0.4997	0.569
x1 = 0.5997	0.584
x1 = 0.7	0.606
x1 = 0.7997	0.642
x1 = 0.9004	0.669

— the CheMixHub viscosity set
